The supplement of paper PMC11061612

Columns and labels:
Assay in all cases: combination Emax (second highest fraction inhibited in the dose matrix, 72 h); higher = more inhibition; extreme values may be limits of the assay
KELLY (Neuroblastoma) = tested on: KELLY (Neuroblastoma)
In short: (§1)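 After 24 hours at 37°C and 5% CO2 in 1536-well plates, cells in DMEM/F12 or RPMI plus 10% FBS received two-drug dose matrices for 72 hours. Viability came from CellTiter-Glo 2.0 luminescence and was scaled as inhibition, anchored at 0 by vehicle wells and at 1 by blank wells. Combination Emax is taken as the second-highest inhibition in the matrix, and Bliss excess as the observed combination effect less EA + EB − EA·EB, with EA and EB the single-agent effects.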

[1] = tested on: RC-K8 (B-Cell Non-Hodgkin's Lymphoma)
In short: as §1

[2] = tested on: B-CPAP (Thyroid Gland Carcinoma)
In short: as §1

[3] = tested on: HT-1376 (Bladder Carcinoma)
In short: as §1

[4] = tested on: SK-ES-1 (Ewing's Sarcoma)
In short: as §1

[5] = tested on: HuP-T4 (Pancreatic Carcinoma)
In short: as §1

[6] = tested on: HCC-78 (Lung Adenocarcinoma)
In short: as §1

[7] = tested on: DoTc2-4510 (Cervical Carcinoma)
In short: as §1

[8] = tested on: Calu-3 (Lung Adenocarcinoma)
In short: as §1

[9] = tested on: CaR-1 (Colorectal Carcinoma)
In short: as §1

[10] = tested on: UM-UC-3 (Bladder Carcinoma)
In short: as §1

[11] = tested on: CCRF-CEM (T-Lymphoblastic Leukemia)
In short: as §1

[12] = tested on: LS-180 (Colorectal Carcinoma)
In short: as §1

[13] = tested on: Daoy (Other Solid Carcinomas)
In short: as §1

[14] = tested on: HCC1806 (Breast Carcinoma)
In short: as §1

[15] = tested on: LNCaP-Clone-FGC (Prostate Carcinoma)
In short: as §1

[16] = tested on: COLO-205 (Colorectal Carcinoma)
In short: as §1

[17] = tested on: ME-1 (Acute Myeloid Leukemia)
In short: as §1

[18] = tested on: NCI-H2085 (Non-Small Cell Lung Carcinoma)
In short: as §1

[19] = tested on: EC-GI-10 (Esophageal Squamous Cell Carcinoma)
In short: as §1

Structure (SMILES)	combination Emax (KELLY (Neuroblastoma))	combination Emax [1]	combination Emax [2]	combination Emax [3]	combination Emax [4]	combination Emax [5]	combination Emax [6]	combination Emax [7]	combination Emax [8]	combination Emax [9]	combination Emax [10]	combination Emax [11]	combination Emax [12]	combination Emax [13]	combination Emax [14]	combination Emax [15]	combination Emax [16]	combination Emax [17]	combination Emax [18]	combination Emax [19]
COc1nnc2ccc(N3CCC(c4ccc(OCCN5CCN(C)C(=O)[C@H]5C)cc4)CC3)nn12 [AZD5153] + CC1(C)CCC(CN2CCN(c3ccc(C(=O)NS(=O)(=O)c4ccc(NCC5CCOCC5)c([N+](=O)[O-])c4)c(Oc4cnc5[nH]ccc5c4)c3)CC2)=C(c2ccc(Cl)cc2)C1 [Venetoclax] (first compound max 1 µM, 7x7, partner max 1 µM)	0.367	0.738	0.622	0.242	0.579	0.485	0.411	0.385	0.621	0.384	0.278	0.562	0.61	0.487	0.645	0.743	0.566	1	0.404	0.251
COc1nnc2ccc(N3CCC(c4ccc(OCCN5CCN(C)C(=O)[C@H]5C)cc4)CC3)nn12 [AZD5153] + CCN(CCO)CCCOc1ccc2c(Nc3cc(CC(=O)Nc4cccc(F)c4)[nH]n3)ncnc2c1 [AZD2811] (first compound max 1 µM, 7x7, partner max 1 µM)	0.724	0.728	0.645	0.256	0.941	0.542	0.489	0.381	0.635	0.367	0.459	0.993	0.617	0.606	0.676	0.743	0.869	0.434	0.484	0.425
COc1nnc2ccc(N3CCC(c4ccc(OCCN5CCN(C)C(=O)[C@H]5C)cc4)CC3)nn12 [AZD5153] + C[C@@H]1COCCN1C2=NC(=NC(=C2)C3(CC3)[S@](=N)(=O)C)C4=C5C=CNC5=NC=C4 [AZD6738] (first compound max 1 µM, 7x7, partner max 10 µM)	0.983	0.896	0.72	0.481	0.929	0.626	0.517	0.511	0.719	0.518	0.621	0.993	0.767	0.835	0.919	0.791	0.83	0.651	0.653	0.604
COc1nnc2ccc(N3CCC(c4ccc(OCCN5CCN(C)C(=O)[C@H]5C)cc4)CC3)nn12 [AZD5153] + Cc1c2c(nn1C)CSCc1cc(n(C)n1)CSc1cc(c3ccccc3c1)OCCCc1c(C(=O)O)n(C)c3c-2c(Cl)ccc13 [AZD5991] (first compound max 1 µM, 7x7, partner max 1 µM)	0.993	0.832	0.706	0.264	0.948	0.606	0.522	0.362	0.677	0.434	0.281	0.858	0.585	0.801	0.755	0.772	0.79	0.793	0.64	0.671
COc1nnc2ccc(N3CCC(c4ccc(OCCN5CCN(C)C(=O)[C@H]5C)cc4)CC3)nn12 [AZD5153] + Cn1cnc2c(F)c(Nc3ccc(Br)cc3Cl)c(C(=O)NOCCO)cc21 [Selumetinib] (first compound max 1 µM, 7x7, partner max 10 µM)	0.645	0.781	0.603	0.26	0.579	0.814	0.451	0.427	0.887	0.619	0.527	0.638	0.828	0.598	0.687	0.728	1	0.583	0.563	0.526
Cc1c2c(nn1C)CSCc1cc(n(C)n1)CSc1cc(c3ccccc3c1)OCCCc1c(C(=O)O)n(C)c3c-2c(Cl)ccc13 [AZD5991] + C=CCn1c(=O)c2cnc(Nc3ccc(N4CCN(C)CC4)cc3)nc2n1-c1cccc(C(C)(C)O)n1 [AZD1775] (first compound max 1 µM, partner max 1 µM)	1	0.617	0.467	0.459	0.985	0.551	0.331	0.523	0.197	0.283	0.271	1	0.47	0.979	0.972	0.769	0.684	0.793	0.626	0.946
Cc1c2c(nn1C)CSCc1cc(n(C)n1)CSc1cc(c3ccccc3c1)OCCCc1c(C(=O)O)n(C)c3c-2c(Cl)ccc13 [AZD5991] + CC1(C)CCC(CN2CCN(c3ccc(C(=O)NS(=O)(=O)c4ccc(NCC5CCOCC5)c([N+](=O)[O-])c4)c(Oc4cnc5[nH]ccc5c4)c3)CC2)=C(c2ccc(Cl)cc2)C1 [Venetoclax] (first compound max 1 µM, 7x7, partner max 1 µM)	0.999	0.185	0.18	0.142	1	0.409	0.158	0.287	0.135	0.144	0.171	0.787	0.191	0.425	0.596	0.228	0.135	1	0.783	0.448
Cc1c2c(nn1C)CSCc1cc(n(C)n1)CSc1cc(c3ccccc3c1)OCCCc1c(C(=O)O)n(C)c3c-2c(Cl)ccc13 [AZD5991] + CCN(CCO)CCCOc1ccc2c(Nc3cc(CC(=O)Nc4cccc(F)c4)[nH]n3)ncnc2c1 [AZD2811] (first compound max 1 µM, 7x7, partner max 1 µM)	0.896	0.379	0.313	0.243	1	0.624	0.31	0.287	0.17	0.338	0.266	0.999	0.342	0.505	0.776	0.33	0.948	0.733	0.863	0.891
Cc1c2c(nn1C)CSCc1cc(n(C)n1)CSc1cc(c3ccccc3c1)OCCCc1c(C(=O)O)n(C)c3c-2c(Cl)ccc13 [AZD5991] + CN(C)CCCOc1ccc(-c2ccc3ncc4c(c3c2)n(C2CCOCC2)c(=O)n4C)cn1 [AZD0156] (first compound max 1 µM, 7x7, partner max 1 µM)	0.741	0.314	0.237	0.196	0.817	0.779	0.211	0.326	0.15	0.186	0.211	0.48	0.196	0.223	0.833	0.429	0.725	0.803	0.219	0.747
Cc1c2c(nn1C)CSCc1cc(n(C)n1)CSc1cc(c3ccccc3c1)OCCCc1c(C(=O)O)n(C)c3c-2c(Cl)ccc13 [AZD5991] + C[C@@H]1COCCN1C2=NC(=NC(=C2)C3(CC3)[S@](=N)(=O)C)C4=C5C=CNC5=NC=C4 [AZD6738] (first compound max 1 µM, 7x7, partner max 10 µM)	0.991	0.781	0.522	0.455	1	0.51	0.544	0.677	0.275	0.362	0.401	1	0.707	0.945	0.961	0.688	0.511	0.798	0.52	0.819
Cc1c2c(nn1C)CSCc1cc(n(C)n1)CSc1cc(c3ccccc3c1)OCCCc1c(C(=O)O)n(C)c3c-2c(Cl)ccc13 [AZD5991] + Cc1cc2ncnn2cc1Nc1ncc2c(n1)n(C1CCOCC1)c(=O)n2C [AZD7648] (first compound max 1 µM, 7x7, partner max 10 µM)	0.768	0.425	0.365	0.221	0.813	0.325	0.339	0.244	0.201	0.277	0.226	0.52	0.256	0.244	0.515	0.42	0.298	0.755	0.244	0.564
Cc1c2c(nn1C)CSCc1cc(n(C)n1)CSc1cc(c3ccccc3c1)OCCCc1c(C(=O)O)n(C)c3c-2c(Cl)ccc13 [AZD5991] + Cn1cnc2c(F)c(Nc3ccc(Br)cc3Cl)c(C(=O)NOCCO)cc21 [Selumetinib] (first compound max 1 µM, 7x7, partner max 3 µM)	0.737	0.239	0.299	0.272	0.809	0.957	0.253	0.432	0.121	0.168	0.28	0.325	0.589	0.278	0.667	0.129	0.828	0.906	0.631	0.758
